# Measured values as given in paper PMC3161034 (BMC Cancer, 2011).
# Like-named read-outs stand apart in the source and are kept apart here.
# How the values were obtained:
# [1] = test system: patients with solid tumors
# Method: The safety endpoint was the incidence of adverse events. Tumor response rate, as assessed by Response Evaluation Criteria in Solid Tumors (RECIST) in patients with measurable disease, was an exploratory endpoint.
# Enrollment of a minimum of six evaluable patients per cohort was planned. If patients discontinued the study before week 5 for any reason other than a DLT, additional patients could be enrolled to meet this goal. The selected motesanib doses (50 mg QD, 100 mg QD, 125 mg QD, and 75 mg BID) were based on the tolerability profiles of motesanib administered as monotherapy and in combination with gemcitabine that were obtained in previous studies. The BID dosing regimen is expected to achieve higher predose motesanib concentrations in the plasma than QD dosing owing to the higher total dose administered and more frequent dosing.
# Treatment continued until the end of week 48 (11 cycles), or until disease progression, death, or unacceptable toxicity occurred. Motesanib administration (in cohorts 1-4) began on day 2 of week 2 of the first cycle and continued throughout the study. Patients experiencing continuous clinical benefit (stable disease or response) at the end of 48 weeks were eligible to continue motesanib monotherapy under a separate protocol.
# Patients enrolled in cohort 1 received an initial dose of motesanib of 50 mg QD. If ≤ 2 patients experienced a DLT during the first 5 weeks of treatment, enrollment into cohort 2 (motesanib 75 mg BID) and cohort 3 (motesanib 125 mg QD) began simultaneously. If ≤ 2 patients in cohort 3 experienced a DLT in the first 5 weeks of treatment, the 125-mg QD dose would be considered the target once-daily dose.
# All adverse events were graded by the investigator according to National Cancer Institute Common Terminology Criteria for Adverse Events (CTCAE) version 3.0. All adverse events were classified according to relatedness to treatment and seriousness. […]
# [2] = test system: cytochrome P450 (CYP) 3A4; conditions: cited from earlier work
# [3] = Motesanib plasma pharmacokinetics (LC-MS/MS, noncompartmental); set-up: species or system human; conditions: in vivo; for half-life / Tmax / AUC(0-t) / concentration at 24 h / Cmax: human; for AUC(0-t) / concentration at 24 h / Cmax: week 3; for AUC(0-t): read-out: AUC0–24, median; for concentration at 24 h: read-out: C24, median; for Cmax: read-out: Cmax, median
# Method: Plasma concentrations of motesanib were analyzed using a validated liquid chromatography/tandem mass spectrometry (LC-MS/MS) method with a lower limit of quantitation (LLOQ) of 0.2 ng/mL (Cedra Corp., Austin, TX).
# Pharmacokinetic parameter estimates were calculated according to standard noncompartmental methods using WinNonlin software (version 5.1.1; Pharsight Corporation, Mountain View, CA) and summarized by dose level. […] For the BID cohort, AUC0—24 values for motesanib were determined by 2 × AUC0—12. The terminal elimination rate constant (λZ) was determined by linear regression of the natural logarithms of plasma concentrations versus time during the terminal phase; the corresponding t1/2 was calculated.
# CYP1A2 = conditions: cited from earlier work
# [4] = test system: patients with advanced solid tumors; set-up: method as in PMID 17557949; conditions: monotherapy; cited from earlier work
# [5] = test system: patients with solid tumours; set-up: method as in PMID 18971935; conditions: in combination with gemcitabine; cited from earlier work
# [6] = 125 mg QD motesanib + 100 mg QD erlotinib + gemcitabine
# [7] = 125 mg QD motesanib + 150 mg QD erlotinib
smiles,measurement,setting,value
CC1(C)CNc2cc(NC(=O)c3cccnc3NCc3ccncc3)ccc21 [motesanib],"Patients with dose-limiting toxicities, all cohorts","[1]; human, in vivo, 5 weeks",11 patients
same,Maximum tolerated dose (MTD),[1]; in combination with erlotinib only (150 mg QD),125 mg QD
same,Maximum tolerated dose (MTD),[1]; in combination with gemcitabine (1000 mg/m^2 weekly) and erlotinib (100 mg QD),100 mg QD
same,Effect on CYP3A4,[2],inhibitor
same,half-life,"[3]; 100 mg, read-out: Mean estimated terminal elimination half-life (t1/2, z)",4.8 to 8.6 h
same,Tmax,"[3]; 100 mg, read-out: Overall median tmax",0.6 to 2 h
same,Tmax,[3]; 150 mg,2 h
same,half-life,[3]; 150 mg,6 to 7.7 h
same,AUC(0-t),[3]; [6],4770 ng·h/mL
same,concentration at 24 h,[3]; [6],37 ng/mL
same,Cmax,[3]; [6],655 ng/mL
same,AUC(0-t),[3]; [7],3120 ng·h/mL
same,concentration at 24 h,[3]; [7],44.7 ng/mL
same,Cmax,[3]; [7],443 ng/mL
same,Effect of combination on motesanib pharmacokinetics,[3],not markedly affected
same,Effect on CYP1A2,CYP1A2,inducer
same,Maximum tolerated dose (MTD),[4],125 mg QD
same,Target dose,[5],125 mg QD
